Measurements: ChEMBL document CHEMBL1201862, “PubChem BioAssay data set” (2004)
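How tested: cells in 96-well plates exposed to compound for 48 hours at five concentrations. GI50 is the concentration that inhibits growth by half.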 Activity calls are given as the source filed them. No stated cut-off is given here; in the data, active = GI50 up to about 1.1 µM and inactive = higher.

How the values were obtained:
Experiment in all cases: NCI anticancer screen, dose series, 48 h
UACC-257 = test system: UACC-257
M14 = test system: M14
SF-539 = test system: SF-539
CCRF-CEM = test system: CCRF-CEM
M19-MEL = test system: M19-MEL
HOP-92 = test system: HOP-92
NCI-H460 = test system: NCI-H460
IGROV-1 = test system: IGROV-1
COLO 205 = test system: COLO 205
HT-29 = test system: HT-29
OVCAR-3 = test system: OVCAR-3
OVCAR-5 = test system: OVCAR-5
SF-268 = test system: SF-268
HL-60 = test system: HL-60
LOX IMVI = test system: LOX IMVI
SK-MEL-2 = test system: SK-MEL-2

SMILES	GI50 (UACC-257)	GI50 (M14)	GI50 (SF-539)	GI50 (CCRF-CEM)	GI50 (M19-MEL)	GI50 (HOP-92)	GI50 (NCI-H460)	GI50 (IGROV-1)	GI50 (COLO 205)	GI50 (HT-29)	GI50 (OVCAR-3)	GI50 (OVCAR-5)	GI50 (SF-268)	GI50 (HL-60)	GI50 (LOX IMVI)	GI50 (SK-MEL-2)
CC1(C(=O)O)CCOc2ccccc21 (configuration not stated)	> 100 µM (inactive)	> 100 µM (inactive)	> 100 µM (inactive)	> 100 µM (inactive)	> 100 µM (inactive)	> 100 µM (inactive)	> 100 µM (inactive)	> 100 µM (inactive)	> 100 µM (inactive)	> 100 µM (inactive)	> 100 µM (inactive)	> 100 µM (inactive)	> 100 µM (inactive)	> 100 µM (inactive)	> 100 µM (inactive)	–
COc1ccc(NC(=O)C2C(=O)N(c3ccc(OC)cc3)C(=O)/C2=N\N)cc1 (configuration not stated)	> 100 µM (inactive)	> 100 µM (inactive)	> 100 µM (inactive)	> 100 µM (inactive)	> 100 µM (inactive)	> 100 µM (inactive)	> 100 µM (inactive)	> 100 µM (inactive)	> 100 µM (inactive)	> 100 µM (inactive)	–	> 100 µM (inactive)	> 100 µM (inactive)	> 100 µM (inactive)	–	> 100 µM (inactive)
CCOC(=O)C1(Br)C(c2ccccc2)NC(=O)NC1(C)Br (configuration not stated)	82 µM (inactive)	82.8 µM (inactive)	–	33.9 µM (inactive)	64.1 µM (inactive)	> 100 µM (inactive)	> 100 µM (inactive)	54.6 µM (inactive)	65.3 µM (inactive)	> 100 µM (inactive)	62.5 µM (inactive)	> 100 µM (inactive)	> 100 µM (inactive)	17.9 µM (inactive)	38.3 µM (inactive)	> 100 µM (inactive)
C=CCC1[C@@H](C(C)(C)C(C(C)=O)C(=O)C(=O)OC)OC(C(C)(C)C)N1C(=O)OC (some centres not stated)	> 100 µM (inactive)	> 100 µM (inactive)	> 100 µM (inactive)	49 µM (inactive)	> 100 µM (inactive)	48.5 µM (inactive)	> 100 µM (inactive)	–	> 100 µM (inactive)	> 100 µM (inactive)	> 100 µM (inactive)	61.5 µM (inactive)	> 100 µM (inactive)	–	–	> 100 µM (inactive)
CCOc1cccc2nc3cccc(C(=O)NCCN(C)C)c3nc12	1.95 µM (inactive)	2.19 µM (inactive)	1.14 µM (inactive)	–	1.2 µM (inactive)	1.39 µM (inactive)	–	1.04 µM (active)	0.632 µM (active)	0.605 µM (active)	1.6 µM (inactive)	2.02 µM (inactive)	–	–	0.48 µM (active)	1.6 µM (inactive)
CC(C)CCC[C@@H](C)[C@H]1CC[C@H]2[C@@H]3CC=C4CC(OCCCCN(O)CCCSC5OC(CO)C(O)C(O)C5O)CC[C@]4(C)[C@H]3CC[C@]12C (some centres not stated)	> 100 µM (inactive)	25 µM (inactive)	18.8 µM (inactive)	26.4 µM (inactive)	> 100 µM (inactive)	> 100 µM (inactive)	39.9 µM (inactive)	22.1 µM (inactive)	25.6 µM (inactive)	30.4 µM (inactive)	–	> 100 µM (inactive)	52.7 µM (inactive)	25.8 µM (inactive)	21.8 µM (inactive)	17.4 µM (inactive)
CN(C)c1nc(N(C)c2ccccc2)[s+]s1	54.2 µM (inactive)	32.4 µM (inactive)	57.9 µM (inactive)	35.7 µM (inactive)	18.9 µM (inactive)	> 100 µM (inactive)	16.7 µM (inactive)	> 100 µM (inactive)	–	89.5 µM (inactive)	–	> 100 µM (inactive)	63.5 µM (inactive)	15.7 µM (inactive)	–	> 100 µM (inactive)
